Test results taken from patent US20020061836A1, “Methods for altering SXR activation using peptide mimetic HIV protease inhibitor SXR ligands” (priority 2000, published 2002).
Like-named read-outs stand apart in the source and are kept apart here.

Columns and labels:
[1] = biological target: T1, human SXR ligand binding domain (Homo sapiens, UniProt O75469); experiment: Gal-L-SXR (Gal-SXR) Gal4 reporter transient transfection assay in CV-1 cells; settings: CV-1 cells; for activation of Gal-L-SXR chimeric receptor: 10 μM compound (LG268 100 nM), about 24 h
T1 sequence (O75469 107-434 limits assumed): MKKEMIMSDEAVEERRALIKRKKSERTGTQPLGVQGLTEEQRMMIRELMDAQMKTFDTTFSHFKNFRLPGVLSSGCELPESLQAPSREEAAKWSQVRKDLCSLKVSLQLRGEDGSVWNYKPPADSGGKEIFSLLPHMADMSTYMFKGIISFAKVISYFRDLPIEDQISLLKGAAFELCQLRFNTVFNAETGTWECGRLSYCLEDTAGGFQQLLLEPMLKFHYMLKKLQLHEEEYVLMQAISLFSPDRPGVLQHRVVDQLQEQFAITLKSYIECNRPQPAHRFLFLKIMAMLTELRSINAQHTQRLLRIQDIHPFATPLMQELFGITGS
Source text: Use of a standard model heterologous cell system to reconstitute SXR agonist and antagonist responsiveness allows SXR activity to be monitored in the absence of the metabolic events which may obscure the process being tested. Any suitable heterologous cell system may be used to test the activation of potential or known SXR nuclear receptor ligands, as long as the cells are capable of being transiently transfected with the appropriate DNA which expresses receptors, reporter genes, response elements, and the like. Cells which constitutively express one or more of the necessary genes may be used as well. Cell systems that are suitable for the transient expression of mammalian genes and which are amenable to maintenance in culture are well known to those skilled in the art. […] Suitable reporter gene constructs are well known to skilled workers in the fields of biochemistry and molecular biology. Activity of the reporter gene can be conveniently normalized to the internal control and the data plotted as fold activation relative to untreated cells.
(§1) The Gal4 reporter activity was normalized to the internal β-galactosidase control and the data plotted as fold activation relative to untreated cells. All transfections contained the Gal4 reporter and a β-galactosidase expression vector as an internal control.
(§2) Izbicka et al., Ann. Oncol.
(§3) Gal-PXR containing the ligand binding domain of mouse PXR (#AF031814) was obtained from Bruce Blumberg.
Transient Transffection Assays—CV-1 cells were grown and transfected as described.

mouse PXR = mouse PXR (Mus musculus, UniProt O54915); settings: 10 μM
Method: as §3
(§4) After 24 hour exposure to the compounds, total RNA was prepared and analyzed by northern analysis using probes for MRP2 and the GAPDH control. […] CV-1 cells were transiently transfected with a Gal4 reporter and a vector expressing Gal4-fused to the ligand binding domain of human SXR (Gal-SXR).
CV-1 cells were transiently transfected with Gal-SXR as in FIG. 21 above. […] Fold activation was determined relative to untreated cells. […] CV-1 cells were transiently transfected with Gal-PXR as in FIG. 21 above. […] FIG. 26: Coactivator recruitment by various HIV protease inhibitors SXR. […] Specific binding was measured as described in the Materials and Methods. Error bars indicate the range of duplicate data points.

[2] = tested on: LS180 human colon cancer cells; experiment: [14C]-paclitaxel efflux from pretreated LS180 cells; format: cell-based; settings: LS180 cells induced 48 hours with 10 μM paclitaxel, 10 μM docetaxel or 100 nM LG268
Method: Taxane-induced drug efflux was measured using pretreated LS180 human colon cancer cells. The rate of drug efflux was measured. […] Individual data points are the means of triplicate determinations, error bars represent standard deviation and the lines are lines of regression. The slope of each line (rate of efflux) was compared to the slope obtained in the control (untreated) cells using an analysis of covariance. […] The entire experiment was performed three times with similar results. […] The cells were then incubated in media supplemented with 10 μM [^14C]-paclitaxel (4.9 μCi/umol, Moravek Biochemicals, Brea, Calif.) for 15 minutes. The uptake of ^14C-paclitaxel reached maximum levels at 10-12 minutes (data not shown). After 15 minutes, the cells were then rapidly centrifuged through silicone oil to remove all traces of extracellular radioactivity, resuspended in fresh media, and cell counts determined. At multiple time points over the next 10 minutes, triplicate aliquots of the cell suspension (approx. 1×10^5 cells/aliquot) were again centrifuged through silicon oil and the radioactivity in the cell pellet measured by quench-corrected liquid scintillation counting. The rate of [^14C]-paclitaxel efflux was determined as the slope of the [^14C]-paclitaxel versus time plots using all data. The slope for each inducer was compared to the slope obtained in the control (untreated) cells using an analysis of covariance.

mouse PPARα = biological target: T2, mouse PPARα (Mus musculus, UniProt P23204); experiment: Nuclear receptor specificity transfection assay; format: cell-based
T2 construct: expressed in transfected cells; host or cells: CV-1
T2 sequence (P23204 1-468): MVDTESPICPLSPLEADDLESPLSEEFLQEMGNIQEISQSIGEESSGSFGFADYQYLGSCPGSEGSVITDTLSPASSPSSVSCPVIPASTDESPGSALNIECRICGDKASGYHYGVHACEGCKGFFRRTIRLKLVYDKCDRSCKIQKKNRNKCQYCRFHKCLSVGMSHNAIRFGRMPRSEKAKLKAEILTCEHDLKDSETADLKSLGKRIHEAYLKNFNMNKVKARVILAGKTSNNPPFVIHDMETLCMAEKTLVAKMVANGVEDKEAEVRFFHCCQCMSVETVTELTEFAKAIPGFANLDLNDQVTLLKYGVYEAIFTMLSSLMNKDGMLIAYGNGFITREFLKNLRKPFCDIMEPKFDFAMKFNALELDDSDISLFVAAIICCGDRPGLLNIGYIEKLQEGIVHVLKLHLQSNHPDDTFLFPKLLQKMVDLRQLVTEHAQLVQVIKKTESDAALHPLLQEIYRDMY

mouse CARβ = biological target: T3, mouse CARβ (Mus musculus, UniProt O35627); experiment: Nuclear receptor specificity transfection assay / LXRE×3-TK-luc reporter with CARβ in CV-1 cells; format: cell-based
T3 sequence (O35627 1-358): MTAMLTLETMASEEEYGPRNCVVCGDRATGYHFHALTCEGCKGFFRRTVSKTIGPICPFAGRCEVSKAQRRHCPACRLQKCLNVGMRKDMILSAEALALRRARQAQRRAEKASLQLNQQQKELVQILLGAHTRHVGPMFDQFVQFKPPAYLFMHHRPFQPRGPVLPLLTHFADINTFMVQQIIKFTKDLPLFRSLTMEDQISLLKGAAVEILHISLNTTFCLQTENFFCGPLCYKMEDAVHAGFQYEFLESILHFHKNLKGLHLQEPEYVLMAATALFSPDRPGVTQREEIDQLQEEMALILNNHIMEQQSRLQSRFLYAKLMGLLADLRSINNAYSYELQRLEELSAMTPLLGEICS

mouse PPARδ = biological target: T4, mouse PPARδ (Mus musculus, UniProt P35396); experiment: Nuclear receptor specificity transfection assay; format: cell-based
T4 construct: expressed in transfected cells; host or cells: CV-1
T4 sequence (P35396 1-440): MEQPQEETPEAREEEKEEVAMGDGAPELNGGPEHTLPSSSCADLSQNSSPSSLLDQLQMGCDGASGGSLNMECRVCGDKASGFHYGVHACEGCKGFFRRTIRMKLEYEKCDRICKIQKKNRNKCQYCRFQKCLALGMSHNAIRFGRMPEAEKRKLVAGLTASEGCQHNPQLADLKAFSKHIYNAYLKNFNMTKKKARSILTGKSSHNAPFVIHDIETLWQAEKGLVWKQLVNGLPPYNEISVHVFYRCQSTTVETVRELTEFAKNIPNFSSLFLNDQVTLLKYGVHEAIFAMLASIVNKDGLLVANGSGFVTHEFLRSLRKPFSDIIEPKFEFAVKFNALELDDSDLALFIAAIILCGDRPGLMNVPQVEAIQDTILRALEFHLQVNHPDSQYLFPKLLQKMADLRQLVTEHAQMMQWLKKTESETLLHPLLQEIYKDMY

human LXRα = biological target: T5, human LXRα (Homo sapiens, UniProt Q13133); experiment: Nuclear receptor specificity transfection assay; format: cell-based
T5 construct: expressed in transfected cells; host or cells: CV-1
T5 sequence (Q13133 1-447): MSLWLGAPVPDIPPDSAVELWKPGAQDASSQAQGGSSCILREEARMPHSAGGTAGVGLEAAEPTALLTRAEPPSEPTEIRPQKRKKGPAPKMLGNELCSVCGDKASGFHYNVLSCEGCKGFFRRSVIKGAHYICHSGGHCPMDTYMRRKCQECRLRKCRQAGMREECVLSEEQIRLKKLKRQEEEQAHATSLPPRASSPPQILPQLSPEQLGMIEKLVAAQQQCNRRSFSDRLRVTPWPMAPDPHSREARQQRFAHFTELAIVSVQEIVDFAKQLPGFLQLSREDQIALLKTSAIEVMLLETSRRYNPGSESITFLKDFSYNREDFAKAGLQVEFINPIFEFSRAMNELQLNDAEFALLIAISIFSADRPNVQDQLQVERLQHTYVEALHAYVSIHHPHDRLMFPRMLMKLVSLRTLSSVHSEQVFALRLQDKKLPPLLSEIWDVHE

[3] = biological target: T6, human RXRα ligand binding domain (Homo sapiens, UniProt P19793); experiment: Gal-L-RXR Gal4 reporter transient transfection assay in CV-1 cells; format: cell-based
T6 construct: expressed in transfected cells; host or cells: CV-1
T6 sequence (P19793 203-462): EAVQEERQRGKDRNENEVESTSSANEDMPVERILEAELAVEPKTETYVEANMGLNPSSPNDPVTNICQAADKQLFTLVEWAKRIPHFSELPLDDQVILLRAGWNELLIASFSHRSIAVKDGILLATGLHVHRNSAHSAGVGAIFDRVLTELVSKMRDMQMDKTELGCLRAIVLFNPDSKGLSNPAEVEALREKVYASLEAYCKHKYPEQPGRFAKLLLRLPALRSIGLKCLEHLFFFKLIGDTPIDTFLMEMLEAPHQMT
Source text: as §1

human RARα = biological target: T7, human RARα (Homo sapiens, UniProt P10276); experiment: Nuclear receptor specificity transfection assay; format: cell-based; settings: 3 μM ritonavir
T7 construct: expressed in transfected cells; host or cells: CV-1

mouse PPARγ = biological target: T8, mouse PPARγ (Mus musculus, UniProt P37238); experiment: Nuclear receptor specificity transfection assay; format: cell-based; settings: 3 μM ritonavir
T8 construct: expressed in transfected cells; host or cells: CV-1

FXR = biological target: T9, FXR (Homo sapiens, UniProt Q96RI1); experiment: Nuclear receptor specificity transfection assay; format: cell-based; settings: 3 μM ritonavir
T9 construct: expressed in transfected cells; host or cells: CV-1

MRP2 mRNA = experiment: Northern analysis of MRP2 expression in primary human hepatocytes; format: cell-based
Method: (§5) Northern Blot Analysis—Primary human hepatocytes were obtained from Clonetics (Walkersville, Md.) and cultured according to the vendors instructions. Cells were treated with the indicated compounds for 24 hours and total RNA was isolated using the Trizol reagent.
as §4
(§6) After 24 hour exposure to the compounds, total RNA was prepared and analyzed by northern analysis using probes for MDR1 and the GAPDH control.

MDR1 mRNA = experiment: Northern analysis of MDR1 expression in human LS180 cells; format: cell-based; settings: 3 μM ritonavir, 24 hour
Method: as §2, §5, §6

human ERα = human ERα (Homo sapiens, UniProt P03372); settings: 3 μM ritonavir
[4] = tested on: thyroid hormone receptor β (TRβ); settings: 3 μM ritonavir

T8 sequence (P37238 whole entry): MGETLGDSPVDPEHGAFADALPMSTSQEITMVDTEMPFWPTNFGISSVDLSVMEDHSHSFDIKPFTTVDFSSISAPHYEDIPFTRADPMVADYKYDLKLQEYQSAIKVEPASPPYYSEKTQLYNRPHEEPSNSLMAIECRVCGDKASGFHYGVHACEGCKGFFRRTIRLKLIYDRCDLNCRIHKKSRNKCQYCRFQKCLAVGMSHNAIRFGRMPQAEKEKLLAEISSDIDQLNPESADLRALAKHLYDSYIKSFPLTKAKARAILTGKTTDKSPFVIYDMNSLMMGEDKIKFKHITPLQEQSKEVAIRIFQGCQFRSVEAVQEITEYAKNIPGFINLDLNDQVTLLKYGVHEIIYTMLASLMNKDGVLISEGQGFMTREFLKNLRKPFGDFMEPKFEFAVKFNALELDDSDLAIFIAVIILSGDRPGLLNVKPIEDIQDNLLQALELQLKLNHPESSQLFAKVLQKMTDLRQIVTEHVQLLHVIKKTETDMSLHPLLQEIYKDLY
T7 sequence (P10276 whole entry): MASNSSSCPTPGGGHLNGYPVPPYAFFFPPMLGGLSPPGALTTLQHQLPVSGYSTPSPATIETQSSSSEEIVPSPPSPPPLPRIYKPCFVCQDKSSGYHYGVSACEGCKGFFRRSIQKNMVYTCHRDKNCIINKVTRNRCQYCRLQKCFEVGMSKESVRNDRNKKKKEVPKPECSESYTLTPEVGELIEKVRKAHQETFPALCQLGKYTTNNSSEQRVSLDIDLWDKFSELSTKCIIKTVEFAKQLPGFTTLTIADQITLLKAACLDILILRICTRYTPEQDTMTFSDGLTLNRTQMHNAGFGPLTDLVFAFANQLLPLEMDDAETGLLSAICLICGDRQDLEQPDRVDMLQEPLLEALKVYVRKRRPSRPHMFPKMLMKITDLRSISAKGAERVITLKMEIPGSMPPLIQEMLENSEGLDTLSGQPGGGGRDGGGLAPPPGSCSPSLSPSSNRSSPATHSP
Sequence of mouse PXR (O54915 143-430 limits assumed): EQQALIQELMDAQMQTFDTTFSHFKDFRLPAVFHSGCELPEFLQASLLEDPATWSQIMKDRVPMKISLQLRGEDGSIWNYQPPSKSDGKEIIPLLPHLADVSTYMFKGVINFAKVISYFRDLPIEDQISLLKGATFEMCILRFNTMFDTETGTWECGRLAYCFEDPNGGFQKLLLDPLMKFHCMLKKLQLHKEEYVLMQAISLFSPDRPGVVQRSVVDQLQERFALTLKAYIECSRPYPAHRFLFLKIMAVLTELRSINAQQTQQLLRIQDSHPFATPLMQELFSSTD
T9 sequence (Q96RI1 whole entry, species assumed): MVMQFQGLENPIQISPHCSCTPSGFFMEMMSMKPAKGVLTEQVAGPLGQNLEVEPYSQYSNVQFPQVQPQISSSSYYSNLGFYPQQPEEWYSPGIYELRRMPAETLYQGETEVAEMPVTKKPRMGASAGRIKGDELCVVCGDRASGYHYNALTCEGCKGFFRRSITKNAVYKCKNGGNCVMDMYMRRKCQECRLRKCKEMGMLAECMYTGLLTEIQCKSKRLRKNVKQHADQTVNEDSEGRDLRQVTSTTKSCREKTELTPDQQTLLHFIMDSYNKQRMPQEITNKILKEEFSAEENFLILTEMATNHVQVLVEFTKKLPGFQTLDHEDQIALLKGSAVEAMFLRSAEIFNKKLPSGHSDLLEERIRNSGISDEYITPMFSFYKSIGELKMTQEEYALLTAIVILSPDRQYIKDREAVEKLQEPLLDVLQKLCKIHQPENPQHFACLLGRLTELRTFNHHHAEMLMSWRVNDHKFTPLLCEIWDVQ
Sequence of human ERα (P03372 whole entry): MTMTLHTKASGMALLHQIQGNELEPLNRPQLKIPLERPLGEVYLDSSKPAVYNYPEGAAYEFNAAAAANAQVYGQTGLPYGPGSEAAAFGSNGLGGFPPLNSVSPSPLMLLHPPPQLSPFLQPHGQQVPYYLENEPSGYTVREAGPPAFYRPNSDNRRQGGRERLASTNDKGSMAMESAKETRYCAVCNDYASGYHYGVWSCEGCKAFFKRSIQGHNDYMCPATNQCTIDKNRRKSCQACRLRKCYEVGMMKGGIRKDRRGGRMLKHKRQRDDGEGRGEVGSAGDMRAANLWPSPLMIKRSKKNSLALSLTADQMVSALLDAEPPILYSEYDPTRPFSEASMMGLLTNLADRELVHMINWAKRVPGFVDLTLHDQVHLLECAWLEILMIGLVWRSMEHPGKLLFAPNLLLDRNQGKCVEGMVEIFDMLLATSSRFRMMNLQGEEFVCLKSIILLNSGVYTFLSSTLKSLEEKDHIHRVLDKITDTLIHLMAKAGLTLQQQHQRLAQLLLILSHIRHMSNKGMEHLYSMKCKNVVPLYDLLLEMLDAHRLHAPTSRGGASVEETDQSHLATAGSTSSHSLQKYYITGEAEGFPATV

CC(=O)[C@H]1[C@H](C#N)C[C@H]2[C@@H]3CC=C4C[C@@H](O)CC[C@]4(C)[C@H]3CC[C@@]21C
activation of Gal-SXR ([1]; 2.5 μM hyperforin, 10 μM rifampicin, 3 μM ritonavir, 10 μM PCN): not | activation of Gal-L-SXR chimeric receptor [1]: not | fold activation by cognate ligand (positive control) (mouse PXR): 23 fold

CC(=O)O[C@H]1C(=O)[C@@]2(C)[C@H]([C@H](OC(=O)c3ccccc3)[C@]3(O)C[C@H](OC(=O)[C@H](O)[C@@H](NC(=O)c4ccccc4)c4ccc(O)cc4)C(C)=C1C3(C)C)[C@]1(OC(C)=O)CO[C@@H]1C[C@@H]2O [3′-p-hydroxypaclitaxel]
activation of Gal-L-SXR chimeric receptor [1]: No activation

CC(=O)O[C@H]1C(=O)[C@@]2(C)[C@H]([C@H](OC(=O)c3ccccc3)[C@]3(O)C[C@H](OC(=O)[C@H](O)[C@@H](NC(=O)c4ccccc4)c4ccccc4)C(C)=C1C3(C)C)[C@]1(OC(C)=O)CO[C@@H]1[C@@H](O)[C@@H]2O [6α-hydroxypaclitaxel]
activation of Gal-L-SXR chimeric receptor [1]: No activation

Cc1cc2c(cc1C1(c3ccc(C(=O)O)cn3)CC1)C(C)(C)CCC2(C)C [LG268]
rate of [14C]-paclitaxel efflux versus untreated cells [2]: did not differ from controls

Cc1cccc(Nc2cc(Cl)nc(SCC(=O)O)n2)c1C [Wy 14,643]
fold activation by cognate ligand (positive control) (mouse PPARα; 5 μM): 13 fold

C[C@@]12CCC[C@H]1[C@@H]1CC[C@H]3C[C@@H](O)CC[C@]3(C)[C@H]1CC2 [androstanol]
fold repression by cognate ligand (positive control) (mouse CARβ; 5 μM): 50 fold | effect on transcriptional activity of CARβ (mouse CARβ; LXRE×3-TK-luc reporter, 5 μM androstanol or 50 nM ET-743): inhibited

CCCCC[C@H](O)/C=C/[C@@H]1[C@H]2C/C(=C/CCCC(=O)O)C[C@H]2C[C@H]1O [arbaprostacyclin]
fold activation by cognate ligand (positive control) (mouse PPARδ; 1 μM): 14 fold

COC(=O)CC[C@@H](C)[C@H]1CC[C@H]2[C@@H]3C[C@H](O)[C@@H]4C[C@H](O)CC[C@]4(C)[C@H]3CC[C@]12C [hyodeoxycholic acid methyl ester]
fold activation by cognate ligand (positive control) (human LXRα; 30 μM): 4.5 fold

CC(C)c1nc(CN(C)C(=O)N[C@H](C(=O)N[C@@H](Cc2ccccc2)C[C@H](O)[C@H](Cc2ccccc2)NC(=O)OCc2cncs2)C(C)C)cs1 [ritonavir]
effect on RXRα reporter activity ([3]; 3 μM ritonavir): no effect | activation of Gal-RXR ([3]; ritonavir dose response, same doses as for SXR): failed to activate | effect on retinoic acid receptor α reporter activity (human RARα): no effect | effect on LXRα reporter activity (human LXRα; 3 μM ritonavir): no effect | effect on PPARα reporter activity (mouse PPARα; 3 μM ritonavir): no effect | effect on PPARγ reporter activity (mouse PPARγ): no effect | effect on PPARδ reporter activity (mouse PPARδ; 3 μM ritonavir): no effect | effect on CARβ reporter activity (mouse CARβ; 3 μM ritonavir): no effect | effect on FXR reporter activity (FXR): no effect | MRP2 mRNA expression (MRP2 mRNA; primary human hepatocytes, 3 μM ritonavir, 24 hour): activated expression | MDR1 mRNA expression (MDR1 mRNA): strongly induced | effect on estrogen receptor α reporter activity (human ERα): no effect | effect on thyroid hormone receptor β reporter activity [4]: no effect

hyperforin
MRP2 mRNA expression (MRP2 mRNA): induced expression
